Laboratory results: patent publication US20250353809A1, “NITROGEN-CONTAINING CHAIN COMPOUND, PREPARATION METHOD, COMPOSITION CONTAINING SAID COMPOUND, AND USE THEREOF” (SHANGHAI RNACURE BIOPHARMA CO., LTD., priority 2022, published 2025)

Key:
[1] = Encapsulation efficiency of LNP (Quant-it Ribogreen RNA quantitative assay kit); type: physicochemical
[2] = Surface potential of LNP preparation (Malvern Zetasizer Ultra); type: physicochemical; details: Table 3; LNP 40:11:47.4:1.6, N/P 8:1
Method: (§1) In this example, the ionizable lipids prepared from Preparation Example 3 to Preparation Example 17 were selected. Following the same method as in Example 1, an LNP preparation (encapsulating Fluc mRNA) was prepared according to a molar ratio and a nitrogen-to-phosphorus ratio shown in Table 3. Malvern Zetasizer Ultra was used to measure a particle size, a PDI, and a surface potential of each LNP preparation; a Quant-it Ribogreen RNA quantification assay kit (manufacturer: ThermoFisher Scientific, item number: R11490) was used to measure encapsulation efficiency of LNP; and a dye binding test of 6-(p-Toluidino)-2-naphthalene sulfonic acid sodium salt (TNS, purchased from Nanjing Xize Pharmaceutical Technology Co., Ltd., item number: XZ0743) was used to measure pKa of the LNP.

female Balb/C mice [3] = test: In-vivo bioluminescence at lower limb administration site after intramuscular injection of Fluc mRNA LNP; details: 5 μg/mouse, Table 3 LNP
Method: In this example, LQ104-1 to LQ104-8 (encapsulating Fluc mRNA) from Example 1 were injected via tail vein into female Balb/C mice (Viton Lihua) aged 6 to 8 weeks at a dose of 5 μg/mouse (n=3, i.e. 3 mice were used for injection and testing in each group, and the data results presented were the mean measurements of each group). […] potassium salt was intraperitoneally injected at specific time points after administration (in this example, 6th hour, 24th hour, and 48th hour), and then the luminescence was detected by an IVIS Spectrum small animal living imager instrument (manufacturer: PerkinElmer). The overall luminescence intensity of live expression sites (such as the liver) in mice was counted. […] The overall luminescence intensity was the luminescence intensity data, measured by bioluminescence imaging, of the luminescent site obtained 6 to 15 minutes (min) after intraperitoneal injection of […] potassium salt. The overall luminescence intensity of the in vivo expression area was counted by using Living Image software (manufacturer: PerkinElmer), furthermore, an area under the curve (AUC, unit: p/s*hour) was calculated by using GraphPad software, and the AUC in each example of the present application is the area under the curve of a line connecting measurement points of the overall luminescence intensity from the 4th or 6th hour after drug administration (using the experimental method of the present application, peak values are the same from 3-6 hours after drug administration) to the 48th hour after drug administration. Test results were shown in FIG. 3 and FIG. 4A, as well as Table 2.
Furthermore, referring to the mouse in-vivo experimental method of Example 3, each group of LNP preparations in this example was injected into female Balb/C mice aged 6 to 8 weeks through tail vein injection or intramuscular injection of the lower limbs at a dose of 5 μg/mouse. The overall luminescence intensity of the liver or lower limb administration site was counted, and the test results were shown in FIG. 5A to FIG. 5D and Table 4A to Table 4D). […]

[4] = pKa of LNP by TNS dye binding test; type: physicochemical; details: Table 3, pKa of the LNP, 40:11:47.4:1.6, N/P 8:1
Method: as §1

[5] = Particle size and PDI of LNP preparation by dynamic light scattering (Malvern Zetasizer Ultra); type: physicochemical
female Balb/C mice [6] = test: In-vivo bioluminescence (overall luminescence intensity, AUC) after tail vein injection of Fluc mRNA LNP; details: 5 μg/mouse, liver site, Table 3 LNP
female Balb/C mice [7] = test: Total Spike antibody titer in serum (ELISA) after intramuscular injection of Spike mRNA LNP; type: in vivo; details: 2 μg/mouse, second injection on 21st day, serum 7th day after second administration, n=8, compared with PBS
[8] = Table 3, LNP 40:11:47.4:1.6, N/P 8:1
[9] = Table 3, LNP lipid:DSPC:cholesterol:DMG-PEG = 40:11:47.4:1.6, nitrogen-to-phosphorus ratio 8:1, Fluc mRNA
[10] = Table 1, Example 1 LNP preparations

| SMILES | Encapsulation efficiency (%) [1, 8] | Surface potential (mV) [2] | AUC (p/s*hour) (female Balb/C mice [3]; Table 4C (FIG. 5C)) | pKa [4] | PDI [5, 8] | Particle size (nm) [5, 9] | AUC (p/s*hour) (female Balb/C mice [6]; Table 4A (FIG. 5A)) | AUC (p/s*hour) (female Balb/C mice [3]; Table 4D (FIG. 5D)) | AUC (p/s*hour) (female Balb/C mice [6]; Table 4B (FIG. 5B)) | Encapsulation efficiency (%) [1, 10] | total Spike protein antibody titer (female Balb/C mice [7]) | PDI [5, 10] | Particle size (nm) ([5]; Table 1, Example 1 LNP preparations (ionizable lipid:DSPC:cholesterol:DMG-PEG)) |
| --- | --- | --- | --- | --- | --- | --- | --- | --- | --- | --- | --- | --- | --- |
| CCCCCCCC(CCCCCCC)OC(=O)CCCCCN(CCO)CCN(CCO)CCCCCC(=O)OC(CCCCCCC)CCCCCCC [LQ104-E15b-1] | 98.1% | −4.22 mV | 5.58E+09 p/s*hour | 6.754 | 0.059 | 71.08 nm | 2.26E+10 p/s*hour | – | – | – | – | – | – |
| CCCCCCCCC(CCCCCCCC)OC(=O)CCCCN(CCO)CCN(CCO)CCCCC(=O)OC(CCCCCCCC)CCCCCCCC [LQ104-E15b-2] | 96.8% | −6.81 mV | – | 6.470 | 0.059 | 56.47 nm | – | – | – | – | – | – | – |
| CCCCCCCCCC(CCCCCCCCC)OC(=O)CCCN(CCO)CCN(CCO)CCCC(=O)OC(CCCCCCCCC)CCCCCCCCC [LQ104-E15b-3] | 96.0% | −10.70 mV | – | 6.161 | 0.083 | 52.80 nm | – | – | – | – | – | – | – |
| CCCCCCCC(CCCCCCC)OC(=O)CCCCCCN(CCO)CCN(CCO)CCCCCCC(=O)OC(CCCCCCC)CCCCCCC [LQ104-E16b-1] | 97.2% | −3.35 mV | 2.30E+09 p/s*hour | 7.109 | 0.044 | 84.84 nm | 2.74E+10 p/s*hour | – | – | – | – | – | – |
| CCCCCCCCC(CCCCCCCC)OC(=O)CCCCCN(CCO)CCN(CCO)CCCCCC(=O)OC(CCCCCCCC)CCCCCCCC [LQ104-E16b-2] | 97.9% | −4.38 mV | 3.50E+09 p/s*hour | 6.761 | 0.098 | 75.44 nm | 8.98E+10 p/s*hour | – | – | – | – | – | – |
| CCCCCCCCC(CCCCCC)C(=O)OCCCCCN(CCO)CCN(CCO)CCCCCOC(=O)C(CCCCCC)CCCCCCCC (stereo not drawn) [LQ104-E16b-3R] | 96.8% | −4.59 mV | 2.19E+09 p/s*hour | 6.802 | 0.088 | 89.68 nm | 1.47E+10 p/s*hour | – | – | – | – | – | – |
| CCCCCCCCC(CCCCCC)OC(=O)CCCCCN(CCO)CCN(CCO)CCCCCC(=O)OC(CCCCCC)CCCCCCCC (stereo not drawn) [LQ104-E16b-3] | 97.6% | −5.94 mV | 2.10E+09 p/s*hour | 6.773 | 0.091 | 78.35 nm | 1.95E+10 p/s*hour | – | – | – | – | – | – |
| CCCCCCCC(CCCCCCC)OC(=O)CCCCCCCN(CCO)CCN(CCO)CCCCCCCC(=O)OC(CCCCCCC)CCCCCCC [LQ104-E17b-1] | 96.9% | −1.066 mV | – | 7.19 | 0.082 | 85.67 nm | – | 2.66E+09 p/s*hour | 3.16E+10 p/s*hour | – | – | – | – |
| CCCCCCCCC(CCCCCCCC)OC(=O)CCCCCCN(CCO)CCN(CCO)CCCCCCC(=O)OC(CCCCCCCC)CCCCCCCC [LQ104-E17b-2] | 97.4% | −1.852 mV | – | 6.852 | 0.045 | 74.14 nm | – | 2.49E+09 p/s*hour | 5.58E+10 p/s*hour | – | – | – | – |
| CCCCCCCCC(CCCCCC)C(=O)OCCCCCCN(CCO)CCN(CCO)CCCCCCOC(=O)C(CCCCCC)CCCCCCCC (stereo not drawn) [LQ104-E17b-3R] | 97.4% | −2.203 mV | – | 7.153 | 0.087 | 77.34 nm | – | 1.47E+09 p/s*hour | 6.33E+09 p/s*hour | – | – | – | – |
| CCCCCCCCC(CCCCCC)OC(=O)CCCCCCN(CCO)CCN(CCO)CCCCCCC(=O)OC(CCCCCC)CCCCCCCC (stereo not drawn) [LQ104-E17b-3] | 97.4% | −2.788 mV | – | 7.15 | 0.058 | 85.57 nm | – | 3.82E+09 p/s*hour | 9.91E+10 p/s*hour | – | – | – | – |
| CCCCCCCCCC(CCCCCCC)OC(=O)CCCCCN(CCO)CCN(CCO)CCCCCC(=O)OC(CCCCCCC)CCCCCCCCC (stereo not drawn) [LQ104-E17b-4] | 98.0% | −3.406 mV | – | 6.469 | 0.061 | 72.30 nm | – | 2.86E+09 p/s*hour | 7.68E+10 p/s*hour | – | – | – | – |
| CCCCCCCCC(CCCCCC)C(=O)OCCCCCCCN(CCO)CCN(CCO)CCCCCCCOC(=O)C(CCCCCC)CCCCCCCC (stereo not drawn) [LQ104-E18b-2R] | 97.4% | −2.013 mV | – | 7.033 | 0.081 | 80.10 nm | – | 1.73E+09 p/s*hour | 1.01E+10 p/s*hour | – | – | – | – |
| CCCCCCCCC(CCCCCC)OC(=O)CCCCCCCN(CCO)CCN(CCO)CCCCCCCC(=O)OC(CCCCCC)CCCCCCCC (stereo not drawn) [LQ104-E18b-2] | 97.5% | −1.109 mV | – | 7.262 | 0.084 | 84.46 nm | – | 3.06E+09 p/s*hour | 5.32E+10 p/s*hour | – | – | – | – |
| CCCCCCCCCC(CCCCCCC)OC(=O)CCCCCCN(CCO)CCN(CCO)CCCCCCC(=O)OC(CCCCCCC)CCCCCCCCC (stereo not drawn) [LQ104-E18b-3] | 97.4% | −2.466 mV | – | 7.039 | 0.063 | 90.39 nm | – | 4.80E+09 p/s*hour | 1.06E+11 p/s*hour | – | – | – | – |
| CCCCCCCCCCCOC(=O)CCCCCN(CCCCCCCC(=O)OC(CCCCCCCC)CCCCCCCC)CCOC(=O)CC(=O)OCCN(CCCCCCCC(=O)OC(CCCCCCCC)CCCCCCCC)CCCCCC(=O)OCCCCCCCCCCC [LQ107] | – | – | – | – | – | – | – | – | – | 83.7% | did not increase | 0.025 | 83.56 nm |
